Reference: patent EP0346068A2, “D-Cys6 vasopressin antagonists” (SMITHKLINE BECKMAN CORPORATION, priority 1988, dated 1989)
Positions of bridges follow the written chain, without caps; N, C: chain ends. No end group written: not given here.

Test system: Adult female mongrel dogs
Assay: Partial agonist screen in indomethacin-treated dogs under water diuresis (urine volume and osmolality)
Type: in vivo
Method: The compounds are tested for partial agonist activity by the following procedures:
Adult female mongrel dogs are fasted for 18 hours prior to testing. The studies are conducted under steady state water diuresis initiated by a 5% body weight water load and a 3% dextrose infusion. At 0 hour, indomethacin, a cyclooxygenase inhibitor, is administered (2 mg/kg i.v. bolus and 3 mg/kg/hr i.v. infusion). Twenty minutes later, the test compound is administered i.v. Urine volume and osmolality are measured every 10 minutes for 4 hours.
The indomethacin dog model may predict the agonist activity of a compound in man.

Substance: ADH: the natural anti-diuretic hormone (ADH), vasopressin (CYFQNCPRG-NH2; disulfide 1-6; ends not checked; UniProt P01185 20-28, looked up)
- antidiuretic activity (urine osmolality, volume) after treatment with indomethacin: potentiates the antidiuretic activity
